Assay results as given in patent publication US20230151025A1, “SUBSTITUTED THIAZOLOPYRIDINES, SALTS THEREOF AND THEIR USE AS HERBICIDALLY ACTIVE SUBSTANCES” (Bayer Aktiengesellschaft, priority 2020, published 2023).

Assays:
Assay type in all cases: in vivo
Avena fatua [1] = test: Herbicidal post-emergence action (D), 320 g/ha; details: ca. 3 weeks
From the text: (§1) Seeds of mono- and dicotyledonous weed plants and crop plants were sown, in plastic or organic planting pots, in sandy loam, covered with soil and grown in a greenhouse under controlled growth conditions. 2 to 3 weeks after sowing, the test plants were sprayed in the single-leaf stage. The compounds according to the invention, formulated in form of wettable powders (WP) or as emulsifiable concentrates (EC), were sprayed onto the green plant parts as aqueous suspension or emulsion, with the addition of 0.5% of an additive, at an application rate of 600 l of water/ha (converted). The test plants were placed in the greenhouse for ca. 3 weeks under optimum growth conditions, and then the effect of the preparations was assessed visually in comparison with untreated controls (herbicidal effect in percent (%): 100% effect=plants have died off, 0% effect=as control plants).
(§2) Tables D1 to D13 below show the effects of selected compounds of the general formula (I) according to table 1 on various harmful plants and an application rate corresponding to 320 g/ha obtained by the experimental procedure mentioned above.

Viola tricolor (VIOTR) [2] = test: Herbicidal pre-emergence action (C), 320 g/ha; details: ca. 3 weeks
Outline: (§3)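 Sandy loam pots, seeds covered with soil → WP/EC compound sprayed on soil surface (aq., +0.5% additive, 600 l/ha) → greenhouse, optimum growth → visual herbicidal effect (%) at ca. 3 wk vs untreated.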

[3] = test system: Echinochloa crus-galli (ECHCG); test: Herbicidal pre-emergence action (C), 320 g/ha; details: ca. 3 weeks
Outline: as §3

[4] = test system: Matricaria inodora (MATIN); test: Herbicidal pre-emergence action (C), 320 g/ha; details: ca. 3 weeks
Outline: as §3

[5] = test system: Amaranthus retroflexus (AMARE); test: Herbicidal pre-emergence action (C), 320 g/ha; details: ca. 3 weeks
Outline: as §3

[6] = test system: Abutilon theophrasti (ABUTH); test: Herbicidal pre-emergence action (C), 320 g/ha; details: ca. 3 weeks
Outline: as §3

Lolium rigidum (LOLRI) [7] = test: Herbicidal pre-emergence action (C), 320 g/ha; details: ca. 3 weeks
Outline: as §3

Setaria viridis (SETVI) [8] = test: Herbicidal pre-emergence action (C), 320 g/ha; details: ca. 3 weeks
Outline: as §3

[9] = test system: Polygonum convolvulus (POLCO); test: Herbicidal pre-emergence action (C), 320 g/ha; details: ca. 3 weeks
Outline: as §3

[10] = test system: Alopecurus myosuroides (ALOMY); test: Herbicidal pre-emergence action (C), 320 g/ha; details: ca. 3 weeks
Outline: as §3

Veronica persica (VERPE) [11] = test: Herbicidal pre-emergence action (C), 320 g/ha; details: ca. 3 weeks
Outline: as §3

Avena fatua [12] = test: Herbicidal pre-emergence action (C), 320 g/ha; details: ca. 3 weeks
Outline: (§4)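 Weed and crop seeds sown in sandy loam; WP or EC formulations applied pre-emergence to the soil surface as aqueous suspension/emulsion with 0.5% additive at 600 l water/ha. Greenhouse-grown under optimum conditions; damage visually scored after ca. 3 weeks versus untreated controls (0% = as control, 100% = plants dead).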

Viola tricolor (VIOTR) [13] = test: Herbicidal post-emergence action (D), 320 g/ha; details: ca. 3 weeks
Outline: (§5)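 Post-emergence greenhouse test. Sandy loam; spray at single-leaf stage (2–3 wk after sowing); WP or EC in water + 0.5% additive, 600 l/ha. Visual rating ~3 wk post-spray, % effect vs untreated (0 = control, 100 = dead).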

[14] = test system: Echinochloa crus-galli (ECHCG); test: Herbicidal post-emergence action (D), 320 g/ha; details: ca. 3 weeks
Outline: as §5

[15] = test system: Abutilon theophrasti (ABUTH); test: Herbicidal post-emergence action (D), 320 g/ha; details: ca. 3 weeks
Outline: as §5

Lolium rigidum (LOLRI) [16] = test: Herbicidal post-emergence action (D), 320 g/ha; details: ca. 3 weeks
Outline: as §5

Setaria viridis (SETVI) [17] = test: Herbicidal post-emergence action (D), 320 g/ha; details: ca. 3 weeks
Outline: as §5

[18] = test system: Polygonum convolvulus (POLCO); test: Herbicidal post-emergence action (D), 320 g/ha; details: ca. 3 weeks
Outline: as §5

[19] = test system: Alopecurus myosuroides (ALOMY); test: Herbicidal post-emergence action (D), 320 g/ha; details: ca. 3 weeks
Outline: as §5

Veronica persica (VERPE) [20] = test: Herbicidal post-emergence action (D), 320 g/ha; details: ca. 3 weeks
Outline: as §5

[21] = test system: Echinochloa crus-galli (ECHCG); test: Herbicidal post-emergence action (B), 1280 g/ha; details: rated visually after about 3 weeks vs untreated controls
Outline: (§6)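 Percent activity is a visual score taken about 3 weeks after treatment, relative to untreated plants, where 100% means the plants died and 0% means no difference from controls. Plants were sprayed on green parts at the one-leaf stage with an aqueous suspension or emulsion containing 0.5% additive at 600 L/ha.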

[22] = test system: Kochia scoparia (KCHSC; Bassia scoparia); test: Herbicidal post-emergence action (B), 1280 g/ha
Outline: as §6

Poa annua (POAAN) [23] = test: Herbicidal post-emergence action (B), 1280 g/ha; details: rated visually after about 3 weeks vs untreated controls
Outline: as §6

Stellaria media (STEME) [24] = test: Herbicidal post-emergence action (B), 1280 g/ha
Outline: as §6

[25] = test system: Amaranthus retroflexus (AMARE); test: Herbicidal post-emergence action (B), 1280 g/ha; details: rated visually after about 3 weeks vs untreated controls
Outline: as §6

[26] = test system: Abutilon theophrasti (ABUTH); test: Herbicidal post-emergence action (B), 1280 g/ha; details: rated visually after about 3 weeks vs untreated controls
Outline: as §6

[27] = test system: Alopecurus myosuroides (ALOMY); test: Herbicidal post-emergence action (B), 1280 g/ha; details: rated visually after about 3 weeks vs untreated controls
Outline: as §6

Veronica persica (VERPE) [28] = test: Herbicidal post-emergence action (B), 1280 g/ha
Outline: as §6

[29] = test system: Echinochloa crus-galli (ECHCG); test: Herbicidal pre-emergence action (A), 1280 g/ha; details: visual grading after ca. 3 weeks vs untreated controls, 100% = plants have died off, 0% = as control plants
Outline: (§7)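 Pre-emergence soil-surface spray, 600 l/ha water, 0.5% additive, WP or EC formulation. Sandy loam, double sowing per pot, greenhouse under optimum growth. Visual % damage at ~3 wk vs untreated; 100% = plants died off.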

[30] = test system: Kochia scoparia (KCHSC; Bassia scoparia); test: Herbicidal pre-emergence action (A), 1280 g/ha; details: visual grading after ca. 3 weeks vs untreated controls
Outline: as §7

Poa annua (POAAN) [31] = test: Herbicidal pre-emergence action (A), 1280 g/ha; details: visual grading after ca. 3 weeks vs untreated controls, 100% = plants have died off, 0% = as control plants
Outline: as §7

[32] = test system: Matricaria inodora (MATIN); test: Herbicidal pre-emergence action (A), 1280 g/ha; details: visual grading after ca. 3 weeks vs untreated controls
Outline: as §7

Stellaria media (STEME) [33] = test: Herbicidal pre-emergence action (A), 1280 g/ha; details: visual grading after ca. 3 weeks vs untreated controls
Outline: as §7

Lolium rigidum (LOLRI) [34] = test: Herbicidal pre-emergence action (A), 1280 g/ha; details: visual grading after ca. 3 weeks vs untreated controls, 100% = plants have died off, 0% = as control plants
Outline: as §7

Setaria viridis (SETVI) [35] = test: Herbicidal pre-emergence action (A), 1280 g/ha; details: visual grading after ca. 3 weeks vs untreated controls
Outline: as §7

[36] = test system: Alopecurus myosuroides (ALOMY); test: Herbicidal pre-emergence action (A), 1280 g/ha; details: visual grading after ca. 3 weeks vs untreated controls, 100% = plants have died off, 0% = as control plants
Outline: as §7

Veronica persica (VERPE) [37] = test: Herbicidal pre-emergence action (A), 1280 g/ha; details: visual grading after ca. 3 weeks vs untreated controls
Outline: as §7

[38] = test system: Digitaria sanguinalis (DIGSA); test: Herbicidal post-emergence action (D), 320 g/ha; details: ca. 3 weeks
From the text: as §1, §2

Stellaria media (STEME) [39] = test: Herbicidal pre-emergence action (C), 320 g/ha; details: visual grading after ca. 3 weeks vs untreated controls, 100% = plants have died off, 0% = as control plants
Outline: as §3

[40] = test system: Digitaria sanguinalis (DIGSA); test: Herbicidal pre-emergence action (C), 320 g/ha; details: ca. 3 weeks
Outline: as §4

[41] = test system: Matricaria inodora (MATIN); test: Herbicidal post-emergence action (D), 320 g/ha; details: single-leaf stage, assessed visually after ca. 3 weeks vs untreated controls, 100% = plants have died off, 0% = as control plants
Outline: as §5

Stellaria media (STEME) [42] = test: Herbicidal post-emergence action (D), 320 g/ha; details: ca. 3 weeks
Outline: as §5

[43] = test system: Amaranthus retroflexus (AMARE); test: Herbicidal post-emergence action (D), 320 g/ha; details: ca. 3 weeks
Outline: as §5

Fc1cccc(F)c1-c1nc2ncsc2cc1Cl [Example I-087]
herbicidal effect AVEFA (Avena fatua [1]): 80% | herbicidal effect VIOTR (Viola tricolor (VIOTR) [2]): 80% | herbicidal effect ECHCG [3]: 100% | herbicidal effect MATIN [4]: 90% | herbicidal effect AMARE [5]: 80% | herbicidal effect ABUTH [6]: 90% | herbicidal effect LOLRI (Lolium rigidum (LOLRI) [7]): 100% | herbicidal effect SETVI (Setaria viridis (SETVI) [8]): 100% | herbicidal effect POLCO [9]: 90% | herbicidal effect ALOMY [10]: 100% | herbicidal effect VERPE (Veronica persica (VERPE) [11]): 90% | herbicidal effect AVEFA (Avena fatua [12]): 80% | herbicidal effect VIOTR (Viola tricolor (VIOTR) [13]): 80% | herbicidal effect ECHCG [14]: 90% | herbicidal effect ABUTH [15]: 80% | herbicidal effect LOLRI (Lolium rigidum (LOLRI) [16]): 80% | herbicidal effect SETVI (Setaria viridis (SETVI) [17]): 90% | herbicidal effect POLCO [18]: 90% | herbicidal effect ALOMY [19]: 90% | herbicidal effect VERPE (Veronica persica (VERPE) [20]): 90%

Cc1ccsc1-c1nc2ncsc2cc1Cl [Example I-192]
herbicidal activity ECHCG [21]: 100% | herbicidal effect KCHSC [22]: 90% | herbicidal activity POAAN (Poa annua (POAAN) [23]): 90% | herbicidal effect STEME (Stellaria media (STEME) [24]): 90% | herbicidal activity AMARE [25]: 100% | herbicidal activity ABUTH [26]: 100% | herbicidal activity ALOMY [27]: 100% | herbicidal effect VERPE (Veronica persica (VERPE) [28]): 100% | herbicidal effect AVEFA (Avena fatua [1]): 80% | ECHCG, herbicidal effect in percent (%) [29]: 100% | herbicidal effect KCHSC [30]: 100% | POAAN, herbicidal effect in percent (%) (Poa annua (POAAN) [31]): 100% | herbicidal effect MATIN [32]: 100% | herbicidal effect STEME (Stellaria media (STEME) [33]): 100% | LOLRI, herbicidal effect in percent (%) (Lolium rigidum (LOLRI) [34]): 100% | herbicidal effect SETVI (Setaria viridis (SETVI) [35]): 100% | ALOMY, herbicidal effect in percent (%) [36]: 100% | herbicidal effect VERPE (Veronica persica (VERPE) [37]): 90% | herbicidal effect ECHCG [3]: 100% | herbicidal effect AMARE [5]: 100% | herbicidal effect LOLRI (Lolium rigidum (LOLRI) [7]): 100% | herbicidal effect SETVI (Setaria viridis (SETVI) [8]): 100% | herbicidal effect ALOMY [10]: 100% | herbicidal effect VERPE (Veronica persica (VERPE) [11]): 90% | herbicidal effect ECHCG [14]: 100% | herbicidal effect SETVI (Setaria viridis (SETVI) [17]): 80% | herbicidal effect ALOMY [19]: 90% | herbicidal effect VERPE (Veronica persica (VERPE) [20]): 80%

Cc1cc2scnc2nc1-c1ccccc1F [Example I-002]
herbicidal effect DIGSA [38]: 90% | herbicidal effect AVEFA (Avena fatua [1]): 80% | herbicidal effect VIOTR (Viola tricolor (VIOTR) [2]): 80% | herbicidal effect ECHCG [3]: 100% | herbicidal effect MATIN [4]: 90% | STEME, herbicidal effect in percent (%) (Stellaria media (STEME) [39]): 90% | herbicidal effect AMARE [5]: 90% | herbicidal effect ABUTH [6]: 90% | herbicidal effect LOLRI (Lolium rigidum (LOLRI) [7]): 100% | herbicidal effect SETVI (Setaria viridis (SETVI) [8]): 100% | herbicidal effect POLCO [9]: 90% | herbicidal effect ALOMY [10]: 100% | herbicidal effect VERPE (Veronica persica (VERPE) [11]): 90% | herbicidal effect DIGSA [40]: 100% | herbicidal effect AVEFA (Avena fatua [12]): 100% | herbicidal effect VIOTR (Viola tricolor (VIOTR) [13]): 80% | herbicidal effect ECHCG [14]: 100% | MATIN, herbicidal effect in percent (%) [41]: 80% | herbicidal effect STEME (Stellaria media (STEME) [42]): 90% | herbicidal effect AMARE [43]: 90% | herbicidal effect ABUTH [15]: 80% | herbicidal effect LOLRI (Lolium rigidum (LOLRI) [16]): 80% | herbicidal effect SETVI (Setaria viridis (SETVI) [17]): 90% | herbicidal effect POLCO [18]: 90% | herbicidal effect ALOMY [19]: 90% | herbicidal effect VERPE (Veronica persica (VERPE) [20]): 80%
